Data from US9115117B2, “Substituted piperidine compounds and their use as orexin receptor modulators” (JANSSEN PHARMACEUTICA NV, priority 2013, dated 2015).

Experiments:
human orexin 1 receptor = human orexin 1 receptor (Homo sapiens, UniProt O43613); test: Human orexin 1 receptor radioligand binding; details: CHO cells stably expressing human orexin 1 receptor; apparent Ki; read-out: hOX1 Ki
Procedure: The in vitro affinity of the compounds of the invention for the rat/human orexin 1 and human orexin 2 receptors was determined by competitive radioligand binding using [^3H](1-(5-(2-fluoro-phenyl)-2-methyl-thiazol-4-yl)-1-((S)-2-(5-phenyl-(1,3,4)oxadiazol-2-ylmethyl)-pyrrolidin-1-yl)-methanone)(Langmead et al., 2004) and [^3H]EMPA (n-ethyl-2[96-methoxy-pyridin-3-yl)-(toluene-2-sulfonyl)-amino]-N-pyridin-3-ylmethyl acetamide), respectively (Langmead et al., 2004, British Journal of Pharmacology 141:340-346; Malherbe et al., 2004, British Journal of Pharmacology 156:1326-41).
Human Embryonic Kidney 293 cells (HEK293) stably expressing rat orexin 1 receptor (Genebank accession number NM_001525) or Chinese ovary cells (CHO) stably expressing human orexin 1 receptor (Genebank accession number NM_001526) were grown to confluency in DMEM (Hyclone, cat #SH30022), 10% FBS, 1× Pen/Strep, 1× sodium pyruvate, 10 mM HEPES, 600 µg/mL G418 and DMEM/F12 (Gibco, Cat #11039), 10% FBS, 1× Pen/Strep, 600 µg/mL G418 media, respectively on 150 cm^2 tissue culture plates, washed with 5 mM EDTA in PBS (HyClone Dulbecco's Phoshpate Buffered Saline 1× with Calcium and Magnesium, Cat #SH30264.01, hereafter referred to simply as PBS) and scraped into 50 ml tubes. After centrifugation (2K×G, 5 min at 4° C.), the supernatant was aspirated and the pellets frozen and stored at −80° C. Cells were resuspended in PBS in the presence of 1 tablet of protease inhibitor cocktail (Roche, Cat. #11836145001) per 50 mL. Each cell pellet from a 15 cm plate was resuspended in 10 mL, stored on ice, and homogenized for 45 sec prior to addition to the reactions. Competition binding experiments in 96 well polypropylene plates were performed using [^3H]-(1-(5-(2-fluoro-phenyl)-2-methyl-thiazol-4-yl)-1-((S)-2-(5-phenyl-(1,3,4)oxadiazol-2-ylmethyl)-pyrrolidin-1-yl)-methanone) (Moraveck Corporation, specific activity=35.3 Ci/mmol), diluted to a 10 nM concentration in PBS (4 nM final). […] The final concentration of DMSO in the reactions is equal to or less than 0.1%. Total and nonspecific binding was determined in the absence and presence of 10 μM almorexant. The total volume of each reaction is 200 μL (20 μL of diluted compounds, 80 μL of [3H]-(1-(5-(2-fluoro-phenyl)-2-methyl-thiazol-4-yl)-1-((S)-2-(5-phenyl-(1,3,4)oxadiazol-2-ylmethyl)-pyrrolidin-1-yl)-methanone) diluted in PBS and 100 μL of the cell suspension). Reactions were run for 60 min at room temperature and terminated by filtration through GF/C filter plates (PerkinElmer, Cat. #6005174) presoaked in 0.3% polyethylenimine using the cell harvester (PerkinElmer Filtermate). The plates were washed 3 times by aspirating 30 ml PBS through the plates. Plates were dried in 55° C. oven for 60 min, scintillation fluid was added, and the radioactivity was counted on a Topcount (Packard).

human orexin 2 receptor = human orexin 2 receptor (Homo sapiens (Human), UniProt O43614); test: Human orexin 2 receptor radioligand binding ([3H]-EMPA); details: HEK293 stably expressing human orexin 2 receptor; [3H]-EMPA; apparent Ki; read-out: hOX2 Ki
Procedure, shortened: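 Competition binding with 2 nM final [3H]-EMPA in PBS against homogenized whole-cell suspension; DMSO ≤0.1%. Nonspecific binding defined with […] almorexant. Plates washed with PBS, dried, and bound radioactivity counted by scintillation.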

rat orexin 1 receptor = rat orexin 1 receptor (Rattus norvegicus, UniProt P56718); test: Rat orexin 1 receptor radioligand binding; details: HEK293 cells stably expressing rat orexin 1 receptor; apparent Ki; read-out: rOX1 Ki
Procedure, shortened: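 Homogenized cell suspensions competed against 4 nM final of a tritiated oxadiazolyl-pyrrolidinyl thiazole methanone radioligand (35.3 Ci/mmol) in PBS, with DMSO ≤0.1%. Nonspecific binding defined with 10 μM almorexant; after washing and drying, bound radioactivity counted by scintillation.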

Sequence of human orexin 2 receptor (O43614 whole entry): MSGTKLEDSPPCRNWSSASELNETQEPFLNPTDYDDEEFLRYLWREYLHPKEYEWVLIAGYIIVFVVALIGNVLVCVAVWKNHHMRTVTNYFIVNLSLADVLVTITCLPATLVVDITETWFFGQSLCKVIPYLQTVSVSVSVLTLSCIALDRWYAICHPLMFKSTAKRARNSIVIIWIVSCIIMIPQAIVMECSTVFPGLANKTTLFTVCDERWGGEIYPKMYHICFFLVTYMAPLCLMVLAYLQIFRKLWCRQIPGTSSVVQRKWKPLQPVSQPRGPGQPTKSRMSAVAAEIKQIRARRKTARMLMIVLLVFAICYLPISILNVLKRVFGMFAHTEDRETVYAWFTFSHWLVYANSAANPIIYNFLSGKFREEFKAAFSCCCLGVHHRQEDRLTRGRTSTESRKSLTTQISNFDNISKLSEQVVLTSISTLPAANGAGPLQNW

Row | SMILES | Ki (human orexin 1 receptor) [nM] | Ki (human orexin 2 receptor) [nM] | Ki (rat orexin 1 receptor) [nM]
1 | Cc1ccc(C(=O)N2CCC[C@@H](Nc3ccc(C(F)(F)F)cn3)[C@@H]2C)c(-n2nccn2)c1 [Example 14, (4-methyl-2-(2H-1,2,3-triazol-2-yl)phenyl)((2S,3R)-2-methyl-3-((5-(trifluoromethyl)pyridin-2-yl)amino)piperidin-1-yl)methanone] | 7 | 681 | 9
2 | Cc1ccc(-c2ncccn2)c(C(=O)N2CCC[C@@H](Nc3ncc(C(F)(F)F)cn3)[C@@H]2C)n1 [Example 78, ((2S,3R)-2-methyl-3-((5-(trifluoromethyl)pyrimidin-2-yl)amino)piperidin-1-yl)(6-methyl-3-(pyrimidin-2-yl)pyridin-2-yl)methanone] | 57 | 436 | 30
3 | C[C@H]1[C@H](Nc2ccc(C(F)(F)F)cn2)CCCN1C(=O)c1cc(Cl)ccc1-n1nccn1 (racemic) [Example 17, (±)-trans-(5-chloro-2-(2H-1,2,3-triazol-2-yl)phenyl)(2-methyl-3-((5-(trifluoromethyl)pyridin-2-yl)amino)piperidin-1-yl)methanone] | 8 | 221 | 11
4 | Cc1cnc(C(=O)N2CCC[C@@H](Nc3cnc(C(F)(F)F)cn3)[C@@H]2C)c(-n2nccn2)c1 [Example 72, ((2S,3R)-2-methyl-3-((5-(trifluoromethyl)pyrazin-2-yl)amino)piperidin-1-yl)(5-methyl-3-(2H-1,2,3-triazol-2-yl)pyridin-2-yl)methanone] | 33 | 4020 | 24
5 | CCOc1ccccc1C(=O)N1CCC[C@@H](Nc2ccc(C(F)(F)F)cn2)[C@@H]1C (racemic) [Example 29, (±)-trans-(2-ethoxyphenyl)(2-methyl-3-((5-(trifluoromethyl)pyridin-2-yl)amino)piperidin-1-yl)methanone] | 90 | 1400 | 97
6 | CCOc1ccccc1C(=O)N1CCC[C@@H](Nc2ccc(Br)cn2)[C@@H]1C (racemic) [Example 44, (±)-trans-(3-(5-bromopyridin-2-yl)amino)-2-methylpiperidin-1-yl)(2-ethoxyphenyl)methanone] | 72 | 1600 | 82
7 | Cc1ccc(C(=O)N2CCC[C@@H](Nc3ncc(C(F)(F)F)cn3)[C@@H]2C)c(-n2nccn2)c1 [Example 71, (4-methyl-2-(2H-1,2,3-triazol-2-yl)phenyl)((2S,3R)-2-methyl-3-((5-(trifluoromethyl)pyrimidin-2-yl)amino)piperidin-1-yl)methanone] | 12 | 1500 | 10
8 | COc1ccc(-n2nccn2)c(C(=O)N2CCC[C@@H](Nc3ccc(C(F)(F)F)cn3)[C@@H]2C)c1 (racemic) [Example 19, (±)-trans-(5-methoxy-2-(2H-1,2,3-triazol-2-yl)phenyl)(2-methyl-3-((5-(trifluoromethyl)pyridin-2-yl)amino)piperidin-1-yl)methanone] | 10 | 238 | 10
9 | Cc1cccc(C(=O)N2CCC[C@@H](Nc3ccc(C(F)(F)F)cn3)[C@@H]2C)c1-n1nccn1 (racemic) [Example 20, (±)-trans-(3-methyl-2-(2H-1,2,3-triazol-2-yl)phenyl)(2-methyl-3-((5-(trifluoromethyl)pyridin-2-yl)amino)piperidin-1-yl)methanone] | 8 | 150 | 14

Continued, values first:

Row | Ki (human orexin 1 receptor) [nM] | Ki (human orexin 2 receptor) [nM] | Ki (rat orexin 1 receptor) [nM] | SMILES
10 | 12 | > 10000 | 26 | Cc1ccc(C(=O)N2CCC[C@@H](Nc3ccc(C(F)(F)F)cn3)[C@@H]2C)c(-n2nccn2)n1 [Example 98, (6-methyl-2-(2H-1,2,3-triazol-2-yl)pyridin-3-yl)((2S,3R)-2-methyl-3-((5-(trifluoromethyl)pyridin-2-yl)amino)piperidin-1-yl)methanone]
11 | 47 | 3900 | 81 | Cc1ccc(C(=O)N2CCC[C@@H](Nc3cnc(C(F)(F)F)cn3)[C@@H]2C)c(-n2ccnn2)n1 [Example 96, (6-methyl-2-(1H-1,2,3-triazol-1-yl)pyridin-3-yl)((2S,3R)-2-methyl-3-((5-(trifluoromethyl)pyrazin-2-yl)amino)piperidin-1-yl)methanone]
12 | 38 | 2700 | 52 | Cc1ccc(C(=O)N2CCC[C@@H](Nc3ccc(C(F)(F)F)cn3)[C@@H]2C)c(-n2ccnn2)n1 [Example 93, (6-methyl-2-(1H-1,2,3-triazol-1-yl)pyridin-3-yl)((2S,3R)-2-methyl-3-((5-(trifluoromethyl)pyridin-2-yl)amino)piperidin-1-yl)methanone]
13 | 23 | 100 | 14 | Cc1ccc(-c2ncccn2)c(C(=O)N2CCC[C@@H](Nc3nc4ccccc4o3)[C@@H]2C)n1 [Example 81, ((2S,3R)-3-(benzo[d]oxazol-2-ylamino)-2-methylpiperidin-1-yl)(6-methyl-3-(pyrimidin-2-yl)pyridin-2-yl)methanone]
14 | 25 | > 10000 | 38 | Cc1cnc(C(=O)N2CCC[C@@H](Nc3ncc(C(F)(F)F)cn3)[C@@H]2C)c(-n2nccn2)c1 [Example 94, ((2S,3R)-2-methyl-3-((5-(trifluoromethyl)pyrimidin-2-yl)amino)piperidin-1-yl)(5-methyl-3-(2H-1,2,3-triazol-2-yl)pyridin-2-yl)methanone]
15 | 19 | 486 | 20 | C[C@H]1[C@H](Nc2cnc(C(F)(F)F)cn2)CCCN1C(=O)c1cc(F)ccc1-n1nccn1 [Example 90, (5-fluoro-2-(2H-1,2,3-triazol-2-yl)phenyl)((2S,3R)-2-methyl-3-((5-(trifluoromethyl)pyrazin-2-yl)amino)piperidin-1-yl)methanone]
16 | 12 | 562 | 8 | Cc1ccc(C(=O)N2CCC[C@@H](Oc3ccc(C(F)(F)F)cn3)[C@@H]2C)c(-n2nccn2)c1 [Example 112, (4-methyl-2-(2H-1,2,3-triazol-2-yl)phenyl)((2S,3R)-2-methyl-3-((5-(trifluoromethyl)pyridin-2-yl)oxy)piperidin-1-yl)methanone]
17 | 10 | 371 | 14 | COc1ccc(-n2nccn2)c(C(=O)N2CCC[C@@H](Nc3ncc(C(F)(F)F)cn3)[C@@H]2C)c1 [Example 89, (5-methoxy-2-(2H-1,2,3-triazol-2-yl)phenyl)((2S,3R)-2-methyl-3-((5-(trifluoromethyl)pyrimidin-2-yl)amino)piperidin-1-yl)methanone]
18 | 25 | 3300 | 13 | Cc1cnc(C(=O)N2CCC[C@@H](Nc3nc4ccccc4o3)[C@@H]2C)c(-c2ncco2)c1 [Example 88, ((2S,3R)-3-(benzo[d]oxazol-2-ylamino)-2-methylpiperidin-1-yl)(5-methyl-3-(oxazol-2-yl)pyridin-2-yl)methanone]
19 | 18 | 4200 | 19 | Cc1cnc(C(=O)N2CCC[C@@H](Nc3ccc(Br)cn3)[C@@H]2C)c(-n2nccn2)c1 [Example 92, ((2S,3R)-3-((5-bromopyridin-2-yl)amino)-2-methylpiperidin-1-yl)(5-methyl-3-(2H-1,2,3-triazol-2-yl)pyridin-2-yl)methanone]
